In US8207178B2 (priority 2007, dated 2012):

Experiments:
Test in all cases: microbe, parasite or virus in culture
Type in all cases: cell-based, human immunodeficiency virus type 1 (HIV-1)
HIV-1 K103N-L100I mutant = settings: Human immunodeficiency virus 1, HeLa, read-out: EC50 mutant K103N-L100I, mutant K103N-L100I
HIV-1 K103N mutant = settings: Human immunodeficiency virus 1, HeLa, read-out: EC50 mutant K103N
HIV-1 Y188L mutant = settings: Human immunodeficiency virus 1, HeLa, read-out: EC50 mutant Y188L
wild type HIV-1 = settings: Human immunodeficiency virus 1, Hela-JC53
HIV-1 K103N-Y181C mutant = settings: Human immunodeficiency virus 1, HeLa, read-out: EC50 mutant K103N-Y181C

SMILES	EC50 (HIV-1 K103N-L100I mutant) [nM]	EC50 (HIV-1 K103N mutant) [nM]	EC50 (HIV-1 Y188L mutant) [nM]	EC50 (wild type HIV-1) [nM]	EC50 (HIV-1 K103N-Y181C mutant) [nM]
Cc1cc(-c2ccnc(C#N)c2)cc(C)c1Oc1nc(Nc2ccc(C#N)cc2)nc2ccn(C)c12 [Example 6, 4-(4-(2-(4-Cyanophenylamino)-5-methyl-5H-pyrrolo[3,2-d]pyrimidin-4-yloxy)-3,5-dimethylphenyl)picolinonitrile]	1 to 10	1 to 10	> 10	1 to 10	> 10
Cc1cc(-c2ccc(C(N)=O)cc2)cc(C)c1Oc1nc(Nc2ccc(C#N)cc2)nc2nc[nH]c12 [Example 45, 4′-(2-(4-Cyanophenylamino)-7H-purin-6-yloxy)-3′,5′-dimethylbiphenyl-4-carboxamide]	1 to 10	1 to 10	1 to 10	< 1	1 to 10
Cc1cc(-c2cn[nH]c2)cc(C)c1Oc1nc(Nc2ccc(C#N)cc2)nc2ccn(C)c12 [Example 24, 4-(4-(2,6-Dimethyl-4-(1H-pyrazol-4-yl)phenoxy)-5-methyl-5H-pyrrolo[3,2-d]pyrimidin-2-ylamino)-benzonitrile]	1 to 10	1 to 10	1 to 10	< 1	> 10
Cc1cc(-c2ccc(S(N)(=O)=O)cc2)cc(C)c1Oc1nc(Nc2ccc(C#N)cc2)nc2ncn(C)c12 [Example 53, 4′-(2-(4-Cyanophenylamino)-7-methyl-7H-purin-6-yloxy)-3′,5′-dimethylbiphenyl-4-sulfonamide]	1 to 10	1 to 10	> 10	1 to 10	1 to 10
Cc1cc(-c2ccnc(F)c2)cc(C)c1Oc1nc(Nc2ccc(C#N)cc2)nc2ccn(C)c12 [Example 3, 4-(4-(4-(2-Fluoropyridin-4-yl)-2,6-dimethylphenoxy)-5-methyl-5H-pyrrolo[3,2-d]pyrimidin-2-ylamino) benzonitrile]	1 to 10	1 to 10	> 10	1 to 10	> 10
